{
  "source": "patent US20260027179A1",
  "about": "“ANTI-SYNUCLEINOPATHY PEPTIDE AND METHODS TO TREAT NEURODEGENERATIVE DISEASES” (University of British Columbia, priority 2021, published 2026)",
  "key": {"TH-positive neurons": {"tested_on": "TH-positive neurons", "assay": "Protection against MPP+ toxicity in ventral midbrain cultures (TH protein, TH-positive neuron counting)", "type": "cell-based, rat", "conditions": "25 μM, 48 hrs, MPP+ 20 μM", "experimental": "Primary rat neuron cultures were prepared from embryos of pregnant Sprague-Dawley rats (E18). The experimental protocol was approved by the University of British Columbia Animal Care Committee. Briefly, the cortical tissue or ventral midbrain tissue was isolated into ice cold HBSS (Invitrogen, 14170-112) and then digested with 0.25% trypsin-EDTA at 37° C. for 30 min. After washing with warm DMEM (supplemented with 10% FBS) three times, neurons were suspended in neuron culture media and dissociated by trituration using varying sizes of pipettes. […]\nNeurons were then washed 6×2 min in PBS, and incubated in Alexa Fluor 488 (Life technologies, A-11034; 1:500 dilution in 3% BSA/PBS) for 45 min at 37° C. without agitation. […] Neurons were then imaged with the Zeiss Axio Observer D1 microscope at 20× and 10 fields of view per coverslip were randomly selected and counted. […]\n(§1) Brain tissues or cultured cells were lysed on ice in the lysis buffer and then the solution was centrifuged at 14,000 rpm for 10 min at 4° C. Next, the supernatant was collected and protein concentrations were determined using a BCA protein assay kit (Thermo Scientific, 23227). […] The band density of each protein was quantified by the Bio-Rad Quantity One software and the relative optical density was analyzed relative to the loading control β-actin on the same membrane."}, "α-synuclein": {"biological_target": "T1, α-synuclein (Mus musculus, UniProt O55042)", "T1 construct": "tissue Charles River; host or cells: ventral midbrain and striatum of C57BL/6 mice", "assay": "MPTP mouse model, α-synuclein immunoblotting of brain tissue", "type": "in vivo", "conditions": "MPTP mice, 6 μmol/kg i.p. twice a day for 12 days, immunoblot", "experimental": "C57BL/6 mice were i.p. injected with 30 mg/kg parkinsonian toxin MPTP (or saline as control), once per day for 5 consecutive days, to induce dopaminergic neuron damage. The effects of MPTP administration on mouse rotarod performance and damage to dopaminergic neurons were then analyzed 1 week after the last injection of MPTP. To determine the effect of α-synuclein knockdown in protecting dopaminergic neurons against MPTP, the Tat-βsyn-degron peptide or its control Tat-βsyn (6 μmol/kg; i.p.) was used in some animals twice a day for 12 days, beginning the first day of MPTP injection. […] The striatum is a region that receives dopaminergic neuronal projections from the substantia nigra and is also deeply affected in PD. […]\nas §1"}},
  "data": [
    {"sequence": "YGRKKRRQRRRRTKSGVYLVGRRRG (The sequence is synthesized (YGRKKRRQRRRRTKSGVYLVGRRRG)) [Tat-βsyn-degron]", "values": [
      {"measurement": "numbers of TH-positive neurons after MPP+", "setting": "TH-positive neurons; blinded counting", "value": "almost fully protected dopaminergic neurons"},
      {"measurement": "TH protein levels after MPP+", "setting": "TH-positive neurons; immunoblot", "value": "rescue of TH protein levels"},
      {"measurement": "α-synuclein in striatum", "setting": "α-synuclein", "value": "induced significant α-synuclein degradation"},
      {"measurement": "α-synuclein in substantia nigra-containing ventral midbrain", "setting": "α-synuclein", "value": "induced significant α-synuclein degradation"}
    ]}
  ]
}
